Laboratory results reported in ChEMBL document CHEMBL1126737, “Toward a novel metal-based chemotherapy against tropical diseases. 1. Enhancement of the efficacy of clotrimazole against Trypanosoma cruzi by complexation to ruthenium in RuCl2(clotrimazole)2” (J Med Chem, 1993).

Key:
[1] = system: Trypanosoma cruzi; experiment: Inhibition of the proliferation of epimastigote form of Trypanosoma cruzi was determined at 10 e-5 M; format: functional
[2] = system: Vero; experiment: Effective concentration to inhibit the proliferation of amastigote form of the parasite grown on mammalian (Vero) cells; format: functional, cell-based, Chlorocebus sabaeus
[3] = Effective concentration that inhibits growth of Trypanosoma cruzi by 50% was reported; format: functional

| Compound | inhibition [1] [%] | EC50 [2] [nM] | EC50 [3] [nM] |
| --- | --- | --- | --- |
| RuCl2(clotrimazole)2 [listing 1 of 2 here] | 90 |  |  |
| RuCl2(clotrimazole)2 [listing 2 of 2 here] |  | 5 | 100 |
| Clc1ccccc1C(c1ccccc1)(c1ccccc1)n1ccnc1 [CLOTRIMAZOLE] |  |  | 3000 |
